According to patent US20230103791A1 (GLAXOSMITHKLINE INTELLECTUAL PROPERTY DEVELOPMENT LIMITED, priority 2019, published 2023):

Target: T1, human Nav1.8 (Homo sapiens, UniProt Q9Y5Y9)
T1 construct: expressed in transfected cells; host or cells: HEK293 (HEK293-Nav1.8)
Test: Nav1.8 sodium channels assay, QPatch 48 HTX electrophysiology in HEK293-Nav1.8 cells
Assay type: cell-based
Settings: at least one set of experimental runs; read-out: average pIC50 value against Nav1.8 (converted)
Summary of the method: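 HEK293 cells co-expressing human Nav1.8, Navβ1 and TREK1 were voltage-clamped on QPatch 48 HTX. The V1/2 protocol ran at 0.07 Hz: hold −100 mV, 20 ms to 0 mV, 8 s at −46 mV, 20 ms at −100 mV, then 20 ms at 0 mV (P2). P2 current was fitted over 6-8 concentrations for IC50, with vehicle wells used to correct for run-down.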

T1 sequence (Q9Y5Y9 whole entry): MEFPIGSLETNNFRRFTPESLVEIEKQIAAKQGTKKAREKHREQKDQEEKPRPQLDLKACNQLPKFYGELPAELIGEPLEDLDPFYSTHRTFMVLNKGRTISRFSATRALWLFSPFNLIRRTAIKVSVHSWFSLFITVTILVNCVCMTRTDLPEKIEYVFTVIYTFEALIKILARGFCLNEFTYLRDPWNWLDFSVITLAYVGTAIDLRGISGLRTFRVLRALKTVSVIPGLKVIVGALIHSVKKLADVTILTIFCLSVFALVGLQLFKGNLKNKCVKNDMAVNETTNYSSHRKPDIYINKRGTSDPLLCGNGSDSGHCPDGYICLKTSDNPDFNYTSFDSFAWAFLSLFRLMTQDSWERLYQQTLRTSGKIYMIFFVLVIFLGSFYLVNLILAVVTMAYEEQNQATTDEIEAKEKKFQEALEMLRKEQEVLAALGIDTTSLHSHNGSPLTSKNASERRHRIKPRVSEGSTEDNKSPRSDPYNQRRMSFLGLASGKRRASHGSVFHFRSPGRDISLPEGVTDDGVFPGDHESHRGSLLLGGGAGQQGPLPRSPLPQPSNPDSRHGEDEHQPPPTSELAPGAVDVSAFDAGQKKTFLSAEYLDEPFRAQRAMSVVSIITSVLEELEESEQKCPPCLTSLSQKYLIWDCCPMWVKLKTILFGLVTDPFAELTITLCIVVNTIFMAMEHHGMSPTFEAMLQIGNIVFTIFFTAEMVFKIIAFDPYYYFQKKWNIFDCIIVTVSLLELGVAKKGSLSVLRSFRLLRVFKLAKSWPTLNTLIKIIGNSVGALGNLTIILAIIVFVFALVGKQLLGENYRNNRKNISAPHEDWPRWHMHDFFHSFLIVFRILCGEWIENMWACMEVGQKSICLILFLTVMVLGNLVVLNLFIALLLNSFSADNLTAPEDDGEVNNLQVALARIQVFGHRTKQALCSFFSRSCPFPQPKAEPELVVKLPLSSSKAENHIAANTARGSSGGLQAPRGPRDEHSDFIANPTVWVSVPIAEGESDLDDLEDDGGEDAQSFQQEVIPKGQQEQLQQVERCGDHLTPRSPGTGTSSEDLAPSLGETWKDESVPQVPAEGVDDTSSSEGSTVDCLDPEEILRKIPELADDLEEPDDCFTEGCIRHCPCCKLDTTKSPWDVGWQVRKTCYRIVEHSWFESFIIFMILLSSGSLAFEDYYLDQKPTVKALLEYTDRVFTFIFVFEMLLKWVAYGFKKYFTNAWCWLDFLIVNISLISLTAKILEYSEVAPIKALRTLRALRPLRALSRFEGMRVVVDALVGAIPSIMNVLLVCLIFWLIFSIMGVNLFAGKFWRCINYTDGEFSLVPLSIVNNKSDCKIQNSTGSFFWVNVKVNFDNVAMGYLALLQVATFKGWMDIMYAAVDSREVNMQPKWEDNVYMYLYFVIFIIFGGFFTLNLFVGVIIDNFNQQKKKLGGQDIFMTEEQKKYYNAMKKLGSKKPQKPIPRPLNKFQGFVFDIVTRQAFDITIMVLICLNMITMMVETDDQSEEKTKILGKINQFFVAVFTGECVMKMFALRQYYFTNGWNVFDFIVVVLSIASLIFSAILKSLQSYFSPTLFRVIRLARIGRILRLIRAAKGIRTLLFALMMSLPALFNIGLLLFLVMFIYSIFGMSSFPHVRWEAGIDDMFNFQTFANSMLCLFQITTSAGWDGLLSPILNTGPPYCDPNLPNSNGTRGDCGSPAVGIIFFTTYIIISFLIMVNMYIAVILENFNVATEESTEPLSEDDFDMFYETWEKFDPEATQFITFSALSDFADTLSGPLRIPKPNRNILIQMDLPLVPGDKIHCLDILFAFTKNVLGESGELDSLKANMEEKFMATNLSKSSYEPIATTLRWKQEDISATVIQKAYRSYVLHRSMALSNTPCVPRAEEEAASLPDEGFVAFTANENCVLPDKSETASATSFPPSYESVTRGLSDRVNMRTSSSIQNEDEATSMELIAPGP
T1 sequence (Q07699 19-218 partner): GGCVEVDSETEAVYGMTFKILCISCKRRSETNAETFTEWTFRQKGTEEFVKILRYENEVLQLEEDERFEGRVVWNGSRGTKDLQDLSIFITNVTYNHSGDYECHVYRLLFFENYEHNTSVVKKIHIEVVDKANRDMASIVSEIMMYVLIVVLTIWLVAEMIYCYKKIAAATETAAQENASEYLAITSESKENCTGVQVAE

Row | IC50 | Compound
1 | ≤ 100 nM | Cc1cc(F)ccc1N1CN(c2ccc(=O)[nH]c2C)C(=O)c2c(C)cccc21 [Example 89, 1-(4-fluoro-2-methylphenyl)-5-methyl-3-(2-methyl-6-oxo-1,6-dihydropyridin-3-yl)-2,3-dihydroquinazolin-4(1H)-one]
2 | ≤ 100 nM | Cc1cc(F)ccc1N1CN(c2ccc(=O)[nH]c2C2CC2)C(=O)c2ccc(C(F)(F)F)cc21 [Example 90, 3-(2-cyclopropyl-6-oxo-1,6-dihydropyridin-3-yl)-1-(4-fluoro-2-methylphenyl)-7-(trifluoromethyl)-2,3-dihydroquinazolin-4(1H)-one]
3 | ≤ 100 nM | COc1cc(F)ccc1N1CN(c2ccc(=O)[nH]c2C)C(=O)c2cc(Cl)ccc21 [Example 91, 6-chloro-1-(4-fluoro-2-methoxyphenyl)-3-(2-methyl-6-oxo-1,6-dihydropyridin-3-yl)-2,3-dihydroquinazolin-4(1H)-one]
4 | 126 to 631 nM | Cc1cc(F)ccc1N1CN(c2cc(=O)[nH]n2C)C(=O)c2ccc(C(F)(F)F)cc21 [Example 92, 1-(4-fluoro-2-methylphenyl)-3-(2-methyl-5-oxo-2,5-dihydro-1H-pyrazol-3-yl)-7-(trifluoromethyl)-2,3-dihydroquinazolin-4(1H)-one]
5 | ≤ 100 nM | Cc1[nH]c(=O)ccc1N1CN(c2ccc(F)cc2C(C)C)c2cc(F)ccc2C1=O [Example 93, 7-fluoro-1-(4-fluoro-2-isopropylphenyl)-3-(2-methyl-6-oxo-1,6-dihydropyridin-3-yl)-2,3-dihydroquinazolin-4(1H)-one]
6 | 794 to 7940 nM | Cc1cc(F)ccc1N1CN(c2c(C)nc(=O)[nH]c2C)C(=O)c2ccc(C(F)(F)F)cc21 [Example 94, 3-(4,6-dimethyl-2-oxo-1,2-dihydropyrimidin-5-yl)-1-(4-fluoro-2-methylphenyl)-7-(trifluoromethyl)-2,3-dihydroquinazolin-4(1H)-one]
7 | ≤ 100 nM | Cc1[nH]c(=O)ccc1N1CN(c2ccc(F)cc2C(C)(C)C)c2ccc(Cl)cc2C1=O [Example 95, 1-(2-(tert-butyl)-4-fluorophenyl)-6-chloro-3-(2-methyl-6-oxo-1,6-dihydropyridin-3-yl)-2,3-dihydroquinazolin-4(1H)-one]
8 | ≤ 100 nM | Cc1[nH]c(=O)ccc1N1CN(c2ccc(F)c(F)c2C)c2ccc(C(F)(F)F)cc2C1=O [Example 96, 1-(3,4-difluoro-2-methylphenyl)-3-(2-methyl-6-oxo-1,6-dihydropyridin-3-yl)-6-(trifluoromethyl)-2,3-dihydroquinazolin-4(1H)-one]
9 | ≤ 100 nM | Cc1[nH]c(=O)ccc1N1CN(c2ccc(F)cc2C(C)C)c2ccc(Cl)c(C)c2C1=O [Example 97, 6-chloro-1-(4-fluoro-2-isopropylphenyl)-5-methyl-3-(2-methyl-6-oxo-1,6-dihydropyridin-3-yl)-2,3-dihydroquinazolin-4(1H)-one]
10 | ≤ 100 nM | Cc1[nH]c(=O)ccc1N1CN(c2ccc(F)cc2C(C)C)c2cc(F)c(Cl)cc2C1=O [Example 98, 6-chloro-7-fluoro-1-(4-fluoro-2-isopropylphenyl)-3-(2-methyl-6-oxo-1,6-dihydropyridin-3-yl)-2,3-dihydroquinazolin-4(1H)-one]
11 | ≤ 100 nM | COc1ccc2c(c1)N(c1ccc(F)cc1C)CN(c1ccc(=O)[nH]c1C)C2=O [Example 99, 1-(4-fluoro-2-methylphenyl)-7-methoxy-3-(2-methyl-6-oxo-1,6-dihydropyridin-3-yl)-2,3-dihydroquinazolin-4(1H)-one]
12 | 794 to 7940 nM | Cc1cc(F)ccc1N1CN(c2ccc(=O)[nH]c2C)C(=O)c2cc(O)c(C(F)(F)F)cc21 [Example 100, 1-(4-fluoro-2-methylphenyl)-6-hydroxy-3-(2-methyl-6-oxo-1,6-dihydropyridin-3-yl)-7-(trifluoromethyl)-2,3-dihydroquinazolin-4(1H)-one]
13 | ≤ 100 nM | COc1cc2c(cc1C(F)(F)F)N(c1ccc(F)cc1C)CN(c1ccc(=O)[nH]c1C)C2=O [Example 101, 1-(4-fluoro-2-methylphenyl)-6-methoxy-3-(2-methyl-6-oxo-1,6-dihydropyridin-3-yl)-7-(trifluoromethyl)-2,3-dihydroquinazolin-4(1H)-one]
14 | 126 to 631 nM | Cc1cc(F)ccc1N1CN(c2ccc(=O)[nH]c2C)C(=O)c2cc(Cl)cnc21 [Example 102, 6-chloro-1-(4-fluoro-2-methylphenyl)-3-(2-methyl-6-oxo-1,6-dihydropyridin-3-yl)-2,3-dihydropyrido[2,3-d]pyrimidin-4(1H)-one]
15 | ≤ 100 nM | Cc1[nH]c(=O)ccc1N1CN(c2ccc(F)cc2C(C)C)c2cc(OC(F)(F)F)ccc2C1=O [Example 103, 1-(4-fluoro-2-isopropylphenyl)-3-(2-methyl-6-oxo-1,6-dihydropyridin-3-yl)-7-(trifluoromethoxy)-2,3-dihydroquinazolin-4(1H)-one]
16 | ≤ 100 nM | Cc1cc(F)ccc1N1CN(c2ccc(=O)[nH]c2C)C(=O)c2cc(Cl)c(F)cc21 [Example 104, 6-chloro-7-fluoro-1-(4-fluoro-2-methylphenyl)-3-(2-methyl-6-oxo-1,6-dihydropyridin-3-yl)-2,3-dihydroquinazolin-4(1H)-one]
17 | ≤ 100 nM | Cc1cc(F)ccc1N1CN(c2ccc(=O)[nH]c2C)C(=O)c2cc(Cl)c(C#N)cc21 [Example 105, 6-chloro-1-(4-fluoro-2-methylphenyl)-3-(2-methyl-6-oxo-1,6-dihydropyridin-3-yl)-4-oxo-1,2,3,4-tetrahydroquinazoline-7-carbonitrile]
18 | ≤ 100 nM | CCc1[nH]c(=O)ccc1N1CN(c2ccc(F)cc2C)c2ccc(Cl)cc2C1=O [Example 106, 6-chloro-3-(2-ethyl-6-oxo-1,6-dihydropyridin-3-yl)-1-(4-fluoro-2-methylphenyl)-2,3-dihydroquinazolin-4(1H)-one]
19 | ≤ 100 nM | Cc1cc(F)ccc1N1CN(c2ccc(=O)[nH]c2C)C(=O)c2cc(C(F)(F)F)c(F)cc21 [Example 107, 7-fluoro-1-(4-fluoro-2-methylphenyl)-3-(2-methyl-6-oxo-1,6-dihydropyridin-3-yl)-6-(trifluoromethyl)-2,3-dihydroquinazolin-4(1H)-one]
20 | ≤ 100 nM | Cc1cc(F)ccc1N1CN(c2ccc(=O)[nH]c2C)C(=O)c2c1ccc(C(F)(F)F)c2F [Example 108, 5-fluoro-1-(4-fluoro-2-methylphenyl)-3-(2-methyl-6-oxo-1,6-dihydropyridin-3-yl)-6-(trifluoromethyl)-2,3-dihydroquinazolin-4(1H)-one]
21 | ≤ 100 nM | Cc1cc(F)ccc1N1CN(c2ccc(=O)[nH]c2C)C(=O)c2cc(F)c(Cl)cc21 [Example 109, 7-chloro-6-fluoro-1-(4-fluoro-2-methylphenyl)-3-(2-methyl-6-oxo-1,6-dihydropyridin-3-yl)-2,3-dihydroquinazolin-4(1H)-one]
22 | ≤ 100 nM | Cc1cc(F)ccc1N1CN(c2ccc(=O)[nH]c2C)C(=O)c2cc(F)c(C(F)(F)F)cc21 [Example 110, 6-fluoro-1-(4-fluoro-2-methylphenyl)-3-(2-methyl-6-oxo-1,6-dihydropyridin-3-yl)-7-(trifluoromethyl)-2,3-dihydroquinazolin-4(1H)-one]
23 | ≤ 100 nM | Cc1cc(F)ccc1N1CN(c2ccc(=O)[nH]c2C)C(=O)c2cc(C(F)(F)F)c(C#N)cc21 [Example 111, 1-(4-fluoro-2-methylphenyl)-3-(2-methyl-6-oxo-1,6-dihydropyridin-3-yl)-4-oxo-6-(trifluoromethyl)-1,2,3,4-tetrahydroquinazoline-7-carbonitrile]
24 | ≤ 100 nM | Cc1cc(F)ccc1N1CN(c2ccc(=O)[nH]c2C)C(=O)c2cc(C#N)c(OC(F)(F)F)cc21 [Example 112, 1-(4-fluoro-2-methylphenyl)-3-(2-methyl-6-oxo-1,6-dihydropyridin-3-yl)-4-oxo-7-(trifluoromethoxy)-1,2,3,4-tetrahydroquinazoline-6-carbonitrile]
25 | 126 to 631 nM | Cc1cc(F)c(F)cc1N1CN(c2ccc(=O)[nH]c2C)C(=O)c2cc(C(F)(F)F)ccc21 [Example 113, 1-(4,5-difluoro-2-methylphenyl)-3-(2-methyl-6-oxo-1,6-dihydropyridin-3-yl)-6-(trifluoromethyl)-2,3-dihydroquinazolin-4(1H)-one]
26 | ≤ 100 nM | Cc1[nH]c(=O)ccc1N1CN(c2ccc(F)cc2C(C)(C)C)c2cc(C(F)(F)F)ccc2C1=O [Example 114, 1-(2-(tert-butyl)-4-fluorophenyl)-3-(2-methyl-6-oxo-1,6-dihydropyridin-3-yl)-7-(trifluoromethyl)-2,3-dihydroquinazolin-4(1H)-one]
27 | ≤ 100 nM | Cc1cc(F)ccc1N1CN(c2cnc(=O)[nH]c2C)C(=O)c2ccc(C(F)(F)F)cc21 [Example 115, 1-(4-fluoro-2-methylphenyl)-3-(6-methyl-2-oxo-1,2-dihydropyrimidin-5-yl)-7-(trifluoromethyl)-2,3-dihydroquinazolin-4(1H)-one]
28 | ≤ 100 nM | CCc1cc(F)ccc1N1CN(c2ccc(=O)[nH]c2C)C(=O)c2cc(F)ccc21 [Example 116, 1-(2-ethyl-4-fluorophenyl)-6-fluoro-3-(2-methyl-6-oxo-1,6-dihydropyridin-3-yl)-2,3-dihydroquinazolin-4(1H)-one]
29 | ≤ 100 nM | Cc1cc(C#N)ccc1N1CN(c2ccc(=O)[nH]c2C)C(=O)c2cc(Cl)ccc21 [Example 117, 4-(6-chloro-3-(2-methyl-6-oxo-1,6-dihydropyridin-3-yl)-4-oxo-3,4-dihydroquinazolin-1(2H)-yl)-3-methylbenzonitrile]
30 | 126 to 631 nM | Cc1ccc(F)cc1N1CN(c2ccc(=O)[nH]c2C)C(=O)c2cc(C(F)(F)F)ccc21 [Example 118, 1-(5-fluoro-2-methylphenyl)-3-(2-methyl-6-oxo-1,6-dihydropyridin-3-yl)-6-(trifluoromethyl)-2,3-dihydroquinazolin-4(1H)-one]
